The results in this text go back to patent publication EP4653451A1, “POLYPEPTIDE COMPOUND AND USE THEREOF” (Chengdu New Radiomedicine Technology Co., Ltd., priority 2023, dated 2024).

A word on the pIC50: it is the IC50 on a negative log10 scale, so that one unit is a factor of ten.

The assay concerns the target T1, human recombinant FAP protein (Homo sapiens, UniProt Q12884).
T1 construct: purchased Acrobiosystems FAP-H82Q6
T1 sequence (Q12884 1-760): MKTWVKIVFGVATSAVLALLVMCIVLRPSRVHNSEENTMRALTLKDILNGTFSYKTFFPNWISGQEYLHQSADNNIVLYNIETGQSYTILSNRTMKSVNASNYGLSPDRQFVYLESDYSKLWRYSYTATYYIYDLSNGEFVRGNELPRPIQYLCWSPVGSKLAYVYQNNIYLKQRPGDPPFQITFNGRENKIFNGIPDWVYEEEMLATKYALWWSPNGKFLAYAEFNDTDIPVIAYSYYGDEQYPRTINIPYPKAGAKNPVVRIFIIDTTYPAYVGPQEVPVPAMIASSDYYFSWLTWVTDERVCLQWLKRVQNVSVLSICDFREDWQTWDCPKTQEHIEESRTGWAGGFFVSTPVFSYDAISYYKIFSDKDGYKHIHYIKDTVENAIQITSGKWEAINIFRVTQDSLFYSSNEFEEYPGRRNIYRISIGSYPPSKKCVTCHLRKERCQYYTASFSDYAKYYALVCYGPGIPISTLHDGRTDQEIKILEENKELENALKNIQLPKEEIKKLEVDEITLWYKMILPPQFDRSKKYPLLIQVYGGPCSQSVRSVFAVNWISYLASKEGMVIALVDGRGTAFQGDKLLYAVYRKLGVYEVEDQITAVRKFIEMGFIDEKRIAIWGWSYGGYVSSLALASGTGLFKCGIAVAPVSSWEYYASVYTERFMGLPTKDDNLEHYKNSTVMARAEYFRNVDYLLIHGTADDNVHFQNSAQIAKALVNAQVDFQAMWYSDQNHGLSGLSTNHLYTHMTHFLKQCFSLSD
Kind of assay: Inhibitory activity against FAP protease activity (Z-Gly-Pro-AMC fluorescence). It counts as biochemical. As to conditions: for inhibitory activity against FAP protease activity: in words. As to the method:
The human recombinant FAP protein (Acrobiosystems, FAP-H82Q6) was diluted to a 125 pM FAP working solution with an assay buffer (50 mM Tris-HCl, 1 M NaCl, 1 mg/mL BSA, pH 7.5), and the FAP substrate (Z-Gly-Pro-AMC (LEONBIO, 68542-93-8)) was diluted to a 150 µM substrate working solution with the assay buffer. 40 µl of FAP working solution and 20 µl of compounds at different concentrations (4-fold dilution) were taken, then 40 µl of substrate working solution was added, and the mixture was uniformly mixed on a shaker at room temperature for 1 min. The uniformly mixed mixture was reacted at room temperature in the dark for 90 min. The fluorescence value Ex = 380 nm/Em = 460 nm was read by using a microplate reader. The original data was saved, and the IC50 value of the compound was obtained by using the original data or the Inhibition% via calculation and analyzing the data with Graphpad PRISM.

[1] abbreviates: 125 pM FAP working solution, 90 min at room temperature, read-out: FAP IC50.

Each structure is given as a SMILES string. pIC50: −log10 of the molar value. Counter-ions that a name gives are not always drawn. Like-named read-outs stand apart in the source and are kept apart here. Numbered stars: 1 amine (or outer) side, 2 acyl side, 3 side chain; on linkers, the order of the positions; unused ones are H or OH. Bridge positions count the residues as written; N and C are the ends. Square brackets hold non-standard residues; d marks the D form. Peptide text beside a SMILES is read from it. * marks the point of attachment. TBMB(SCH2CH2NH-DOTA) = O=C(O)CN1CCN(CC(=O)O)CCN(CC(=O)NCCSCc2cc(C[*:1])cc(C[*:2])c2)CCN(CC(=O)O)CC1; X6 = NC[C@H](CSCc1cccc(C[*:1])c1)N[*:2]; 1Nal = N[C@@H](Cc1cccc2ccccc12)C(=O)O; β3hC = N[C@@H](CS)CC(=O)O; Hexanoyl = CCCCCC(=O)* Where only a bound is given, the exact number is not on record here.

With `CCCCCC(=O)N[C@H]1CSCc2cccc(c2)CSC[C@@H](CN)NC(=O)[C@H](Cc2ccccc2)NC(=O)[C@H](CCC(N)=O)NC(=O)[C@H]([C@@H](C)O)NC(=O)[C@@H]2CCCN2C(=O)[C@@H]2CCCN2C1=O` [Compound 4, Hex-Cys-Pro-Pro-Thr-Gln-Phe-Cys-CH2NH2 (Cys bridge DBMB) trifluoroacetate] (Hexanoyl-CPPTQF; linker 1-C via X6), the pIC50 was 7.95.

For `CCCCCC(=O)N[C@@H]1CSCc2cc(CSCCNC(=O)CN3CCN(CC(=O)O)CCN(CC(=O)O)CCN(CC(=O)O)CC3)cc(c2)CSC[C@@H](CC(=O)O)NC(=O)[C@H](Cc2cccc3ccccc23)NC(=O)[C@H](CCC(N)=O)NC(=O)[C@H]([C@@H](C)O)NC(=O)[C@@H]2CCCN2C(=O)[C@@H]2CCCN2C1=O` [Compound 78, Hexanoyl-(D-Cys(tMeBn(DOTA-AET))-Pro-Pro-Thr-Gln-1Nal-betahomoCys)-OH] (Hexanoyl-[dC]PPTQ[1Nal][β3hC]-OH; linker 1-7 via TBMB(SCH2CH2NH-DOTA)), the “inhibitory activity against FAP protease activity” value is reported as “good inhibitory activity”. Moreover, under setting [1], the pIC50 was 7.83.

Consider `CCCCCC(=O)N[C@H]1CSCc2cc(CSCCNC(=O)CN3CCN(CC(=O)O)CCN(CC(=O)O)CCN(CC(=O)O)CC3)cc(c2)CSC[C@@H](CC(=O)O)NC(=O)[C@H](Cc2cccc3ccccc23)NC(=O)[C@H](CCC(N)=O)NC(=O)[C@H]([C@@H](C)O)NC(=O)[C@@H]2CCCN2C(=O)[C@H]2CCCN2C1=O` [Compound 79, Hexanoyl-(Cys(tMeBn(DOTA-AET))-D-Pro-Pro-Thr-Gln-1Nal-betahomoCys)-OH] (Hexanoyl-C[dP]PTQ[1Nal][β3hC]-OH; linker 1-7 via TBMB(SCH2CH2NH-DOTA)), for which the pIC50 under setting [1] was less than 5.30.

For `CCCCCC(=O)N[C@H]1CSCc2cc(CSCCNC(=O)CN3CCN(CC(=O)O)CCN(CC(=O)O)CCN(CC(=O)O)CC3)cc(c2)CSC[C@@H](CC(=O)O)NC(=O)[C@H](Cc2cccc3ccccc23)NC(=O)[C@H](CCC(N)=O)NC(=O)[C@H]([C@@H](C)O)NC(=O)[C@H]2CCCN2C(=O)[C@@H]2CCCN2C1=O` [Compound 80, Hexanoyl-(Cys(tMeBn(DOTA-AET))-Pro-D-Pro-Thr-Gln-1Nal-betahomoCys)-OH] (Hexanoyl-CP[dP]TQ[1Nal][β3hC]-OH; linker 1-7 via TBMB(SCH2CH2NH-DOTA)), the pIC50 under setting [1] was 6.25.

For `CCCCCC(=O)N[C@H]1CSCc2cc(CSCCNC(=O)CN3CCN(CC(=O)O)CCN(CC(=O)O)CCN(CC(=O)O)CC3)cc(c2)CSC[C@@H](CC(=O)O)NC(=O)[C@H](Cc2cccc3ccccc23)NC(=O)[C@H](CCC(N)=O)NC(=O)[C@@H]([C@H](C)O)NC(=O)[C@@H]2CCCN2C(=O)[C@@H]2CCCN2C1=O` [Compound 81, Hexanoyl-(Cys(tMeBn(DOTA-AET))-Pro-Pro-D-Thr-Gln-1Nal-betahomoCys)-OH] (Hexanoyl-CPP[dT]Q[1Nal][β3hC]-OH; linker 1-7 via TBMB(SCH2CH2NH-DOTA)), the “inhibitory activity against FAP protease activity” value is “good inhibitory activity”. In addition, the pIC50 under setting [1] is 7.15.

As for `CCCCCC(=O)N[C@H]1CSCc2cc(CSCCNC(=O)CN3CCN(CC(=O)O)CCN(CC(=O)O)CCN(CC(=O)O)CC3)cc(c2)CSC[C@@H](CC(=O)O)NC(=O)[C@H](Cc2cccc3ccccc23)NC(=O)[C@@H](CCC(N)=O)NC(=O)[C@H]([C@@H](C)O)NC(=O)[C@@H]2CCCN2C(=O)[C@@H]2CCCN2C1=O` [Compound 82, Hexanoyl-(Cys(tMeBn(DOTA-AET))-Pro-Pro-Thr-D-Gln-1Nal-betahomoCys)-OH] (Hexanoyl-CPPT[dQ][1Nal][β3hC]-OH; linker 1-7 via TBMB(SCH2CH2NH-DOTA)), under setting [1], the pIC50 is 6.68.
